Active and inactive are the calls of the source. No cut-off for these calls is given here. Square brackets hold non-standard residues; d marks the D form. Peptide text beside a SMILES is read from it. * marks the point of attachment. NHCH2CH2OH = OCCN*; For = O=C*
How the values were obtained:
[1] = Selectivity index, ratio of CC50 for mouse NCTC-929 cells to IC50 for Trypanosoma cruzi amastigotes infected in BA;B/c mouse peritoneal macrophages; type: toxicity; details: read-out: Ratio CC50/IC50
Trypanosoma cruzi [2] = assay: Antitrypanosomal activity against Trypanosoma cruzi strain Y trypomastigotes maintained in Rhesus monkey […] cells assessed as decrease in trypomastigotes cell viability incubated for 24 hrs by resazurin dye based colorimetric assay; type: functional, organism-based
Trypanosoma cruzi [3] = assay: Antitrypanosomal activity against Trypanosoma cruzi amastigotes infected in BALB/c mouse peritoneal macrophages assessed as decrease in parasitic load with in the cell incubated for 48 hrs by Giemsa staining based light microscopy; type: functional, organism-based
[4] = Cytotoxicity against mouse NCTC-929 cells assessed as reduction in cell viability incubated for 48 hrs by MTT assay; type: cell-based; details: NCTC-929 (L929) cells
Trypanosoma cruzi [5] = assay: Induction of mitochondrial membrane depolarization in Trypanosoma cruzi strain Y trypomastigotes assessed as reduction in mitochondrial membrane potential at 50 uM measured after 120 mins by JC-1 probe based flow cytometry; type: functional, organism-based
Trypanosoma cruzi [6] = assay: Induction of plasma membrane electric potential depolarization in Trypanosoma cruzi strain Y trypomastigotes at 0.5 mg/ml measured after 60 mins by DiSBAC2(3) dye based flow cytometry; type: functional

| Structure (SMILES) | selectivity ratio [1] | IC50 (Trypanosoma cruzi [2]) [µM] | IC50 (Trypanosoma cruzi [3]) [µM] | CC50 at 48 h [4] [µM] | inhibition (Trypanosoma cruzi [5]) | Activity (Trypanosoma cruzi [6]) [%] |
| --- | --- | --- | --- | --- | --- | --- |
| O=C(Cn1ccnc1[N+](=O)[O-])NCc1ccccc1 [BENZNIDAZOLE] | 38.1 | 17.7 | 5 | 191 |  |  |
| CCCOc1c(OC)cc(CCC)cc1Oc1ccc(CCC)cc1OC |  | > 100 | > 30 | > 200 |  |  |
| CCCc1ccc(Oc2cc(CCC)cc(OC)c2OC)c(OC)c1 | > 15.4 | > 100 | 13.3 | > 200 |  |  |
| N#CC(C#N)=NNc1cccc(Cl)c1 |  |  |  |  | Active |  |
| CC(C)C[C@@H](NC(=O)[C@H](C)NC(=O)CNC(=O)[C@@H](NC=O)C(C)C)C(=O)N[C@@H](C)C(=O)N[C@@H](C(=O)N[C@H](C(=O)N[C@@H](C(=O)N[C@@H](Cc1c[nH]c2ccccc12)C(=O)N[C@H](CC(C)C)C(=O)N[C@@H](Cc1c[nH]c2ccccc12)C(=O)N[C@H](CC(C)C)C(=O)N[C@@H](Cc1c[nH]c2ccccc12)C(=O)N[C@H](CC(C)C)C(=O)N[C@@H](Cc1c[nH]c2ccccc12)C(=O)NCCO)C(C)C)C(C)C)C(C)C [GRAMICIDIN D] (For-VGA[dL]A[dV]V[dV]W[dL]W[dL]W[dL]W-NHCH2CH2OH) |  |  |  |  |  | 100 |
| COc1cc(CC(C)O)ccc1Oc1cc(CC(C)O)cc(OC)c1OC (stereo unspecified) |  | > 100 | > 30 | > 200 |  |  |
